Values of other authors as cited in patent US20200289459A1, “LIQUID DOSAGE FORMS, METHODS OF MAKING AND USE” (CANOPY GROWTH CORPORATION, priority 2017, published 2020).

How the values were obtained:
[1] = system: locomotor suppression, catalepsy, hypothermia and analgesia; details: up to 80 mg/kg
5-HT1A receptor = biological target: T1, 5-HT1A receptor (Homo sapiens, UniProt P08908)
T1 sequence (P08908 1-422): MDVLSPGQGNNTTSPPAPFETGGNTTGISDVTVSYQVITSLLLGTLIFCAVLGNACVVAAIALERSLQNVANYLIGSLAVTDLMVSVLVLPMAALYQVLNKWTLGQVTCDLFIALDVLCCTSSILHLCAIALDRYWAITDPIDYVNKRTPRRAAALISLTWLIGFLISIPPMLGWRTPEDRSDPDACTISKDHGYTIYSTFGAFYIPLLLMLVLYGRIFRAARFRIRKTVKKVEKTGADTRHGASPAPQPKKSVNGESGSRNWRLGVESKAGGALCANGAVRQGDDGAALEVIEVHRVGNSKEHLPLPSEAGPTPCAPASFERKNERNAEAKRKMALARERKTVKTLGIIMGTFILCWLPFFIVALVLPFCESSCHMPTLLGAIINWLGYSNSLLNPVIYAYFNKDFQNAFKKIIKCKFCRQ

CB1 receptor = CB1 receptor (Homo sapiens, UniProt P21554)
CB2 receptor = CB2 receptor (Homo sapiens, UniProt P34972)
CB2 receptor, sequence (P34972 whole entry): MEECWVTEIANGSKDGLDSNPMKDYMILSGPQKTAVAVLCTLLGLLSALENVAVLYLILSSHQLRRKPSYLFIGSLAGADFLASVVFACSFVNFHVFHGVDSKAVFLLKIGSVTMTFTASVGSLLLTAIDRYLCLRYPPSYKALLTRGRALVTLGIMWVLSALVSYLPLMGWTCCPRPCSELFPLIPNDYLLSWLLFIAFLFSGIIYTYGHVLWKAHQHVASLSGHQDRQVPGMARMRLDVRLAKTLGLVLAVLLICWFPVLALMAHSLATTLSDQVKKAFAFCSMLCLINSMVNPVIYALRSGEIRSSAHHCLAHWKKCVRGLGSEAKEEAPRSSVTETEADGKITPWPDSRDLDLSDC

CB1 receptor, sequence (P21554 whole entry): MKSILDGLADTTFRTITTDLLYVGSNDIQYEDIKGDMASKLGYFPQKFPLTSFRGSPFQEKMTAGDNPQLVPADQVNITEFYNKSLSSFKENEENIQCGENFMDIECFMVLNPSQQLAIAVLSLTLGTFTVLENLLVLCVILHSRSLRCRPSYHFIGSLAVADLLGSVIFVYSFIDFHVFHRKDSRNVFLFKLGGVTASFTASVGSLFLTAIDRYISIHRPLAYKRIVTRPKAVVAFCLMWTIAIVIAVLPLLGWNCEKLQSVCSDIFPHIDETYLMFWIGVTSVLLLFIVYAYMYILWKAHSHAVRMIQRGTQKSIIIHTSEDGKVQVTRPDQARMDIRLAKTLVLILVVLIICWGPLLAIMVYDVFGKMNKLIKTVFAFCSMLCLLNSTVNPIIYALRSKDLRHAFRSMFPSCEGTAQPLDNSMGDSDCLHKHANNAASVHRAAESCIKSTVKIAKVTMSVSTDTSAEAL

CCCCCc1cc(O)c(C/C=C(\C)CCC=C(C)C)c(O)c1 [CBG, Cannabigerol]
effect in the mouse tetrad test of cannabimimetic activity [1]: without effect | affinity as α2-adrenergic receptor agonist (α2-adrenergic receptor): high affinity | affinity as 5-HT1A receptor antagonist (5-HT1A receptor): moderate affinity | affinity as CB1 receptor antagonist (CB1 receptor): low affinity | binding to the CB2 receptor (CB2 receptor): antagonist
